In brackets after ≈: the same amount, converted by molar mass. Like-named read-outs stand apart in the source and are kept apart here.
Tests used:
[1] = tested on: Escherichia coli ATCC 25922; assay: Minimal Inhibitory Concentration (MIC) broth dilution assay; type: cell-based; settings: read-out: MIC Escherichia coli ATCC 25922
Outline: (§1)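 Broth dilution MIC in cation-adjusted Mueller Hinton broth, final inoculum 5×10^5 CFU/mL, serial 2-fold compound dilutions from DMSO stocks. Plates incubated 20 hours at 35° C. in ambient air; MIC read visually as lowest concentration inhibiting visible growth.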

[2] = tested on: Klebsiella pneumonia ATCC 43816; assay: as above; type: cell-based; settings: Klebsiella pneumoniae, read-out: MIC Klebsiella pneumoniae ATCC43816
Outline: as §1

Row | Compound | MIC ([1]; ATCC25922, 20 h) [µg/mL] | MIC ([2]; ATCC43816, 20 h) [µg/mL] | MIC ([1]; ATCC25922, broth dilution in CAMHB, 5×10^5 CFU/mL, 20 hours at 35° C.) [µg/mL] | MIC ([2]; ATCC43816, broth dilution in CAMHB, 5×10^5 CFU/mL, 20 hours at 35° C.) [µg/mL]
1 | NCCCNC1Cc2ccc(C(=O)Nc3ccc(S(=O)(=O)N4CCN(c5cc(C(F)(F)F)cc(Cl)n5)CC4)cc3)cc2C1 (stereo not drawn) [Example 061, 2-(3-Aminopropylamino)-N-[4-[4-[6-chloro-4-(trifluoromethyl)-2-pyridyl]piperazin-1-yl]sulfonylphenyl]indane-5-carboxamide] | 0.53 (≈ 0.832 µM) | 1.1 (≈ 1.73 µM) |  | 
2 | NCCCNC1CCc2ccc(C(=O)Nc3ccc(S(=O)(=O)N4CCN(c5cc(C(F)(F)F)cc(Cl)n5)CC4)cc3)cc21 (stereo not drawn) [Example 062, 3-(3-Aminopropylamino)-N-[4-[4-[6-chloro-4-(trifluoromethyl)-2-pyridyl]piperazin-1-yl]sulfonylphenyl]indane-5-carboxamide] | 2.1 (≈ 3.3 µM) | 4.2 (≈ 6.59 µM) |  | 
3 | COc1ccc(CN2CCC3CN(C)CC32)cc1C(=O)Nc1ccc(S(=O)(=O)N2CCN(c3cc(C(F)(F)F)cc(Cl)n3)CC2)cc1 (stereo not drawn) [Example 063, N-[4-[4-[6-chloro-4-(trifluoromethyl)-2-pyridyl]piperazin-1-yl]sulfonylphenyl]-2-methoxy-5-[(5-methyl-2,3,3a,4,6,6a-hexahydropyrrolo[2,3-c]pyrrol-1-yl)methyl]benzamide] | 4.3 (≈ 6.2 µM) | 4.3 (≈ 6.2 µM) |  | 
4 | NCCCNC1CCc2cc(C(=O)Nc3ccc(S(=O)(=O)N4CCN(c5cc(C(F)(F)F)cc(Cl)n5)CC4)cc3)ccc21 (stereo not drawn) [Example 064, 1-(3-Aminopropylamino)-N-[4-[4-[6-chloro-4-(trifluoromethyl)-2-pyridyl]piperazin-1-yl]sulfonylphenyl]indane-5-carboxamide] | 2.1 (≈ 3.3 µM) | 4.2 (≈ 6.59 µM) |  | 
5 | NCCCOc1ccc(C(=O)Nc2ccc(S(=O)(=O)N3CCN(c4cc(C(F)(F)F)cc(Cl)n4)CC3)cc2)cc1OCCCN [Example 065, 3,4-Bis(3-Aminopropoxy)-N-[4-[4-[6-chloro-4-(trifluoromethyl)-2-pyridyl]piperazin-1-yl]sulfonylphenyl]benzamide] | 0.26 (≈ 0.387 µM) | 0.52 (≈ 0.775 µM) |  | 
6 | NCCCN1CCCC1c1cccc(C(=O)Nc2ccc(S(=O)(=O)N3CCN(c4cc(C(F)(F)F)cc(Cl)n4)CC3)cc2)c1 (stereo not drawn) [Example 066, 3-[1-(3-Aminopropyl)pyrrolidin-2-yl]-N-[4-[4-[6-chloro-4-(trifluoromethyl)-2-pyridyl]piperazin-1-yl]sulfonylphenyl]benzamide] | 0.51 (≈ 0.783 µM) | 1 (≈ 1.54 µM) |  | 
7 | NCCCN1CCC(c2cccc(C(=O)Nc3ccc(S(=O)(=O)N4CCN(c5cc(C(F)(F)F)cc(Cl)n5)CC4)cc3)c2)C1 (stereo not drawn) [Example 067, 3-[1-(3-Aminopropyl)pyrrolidin-3-yl]-N-[4-[4-[6-chloro-4-(trifluoromethyl)-2-pyridyl]piperazin-1-yl]sulfonylphenyl]benzamide] | 0.51 (≈ 0.783 µM) | 1 (≈ 1.54 µM) |  | 
8 | NC1CCN(CCc2ccc(C(=O)Nc3ccc(S(=O)(=O)N4CCN(c5cc(C(F)(F)F)cc(Cl)n5)CC4)cc3)cc2)C1 (stereo not drawn) [Example 069, 4-[2-(3-Aminopyrrolidin-1-yl)ethyl]-N-[4-[4-[6-chloro-4-(trifluoromethyl)-2-pyridyl]piperazin-1-yl]sulfonylphenyl]benzamide] | 1.2 (≈ 1.88 µM) | 2.3 (≈ 3.61 µM) |  | 
9 | NC1CCC12CN(CCc1ccc(C(=O)Nc3ccc(S(=O)(=O)N4CCN(c5cc(C(F)(F)F)cc(Cl)n5)CC4)cc3)cc1)C2 (stereo not drawn) [Example 070, 4-[2-(7-Amino-2-azaspiro[3.3]heptan-2-yl)ethyl]-N-[4-[4-[6-chloro-4-(trifluoromethyl)-2-pyridyl]piperazin-1-yl]sulfonylphenyl]benzamide] | 1.2 (≈ 1.81 µM) | 2.4 (≈ 3.62 µM) |  | 
10 | CN1CC2CCN(CCc3ccc(C(=O)Nc4ccc(S(=O)(=O)N5CCN(c6cc(C(F)(F)F)cc(Cl)n6)CC5)cc4)cc3)C2C1 (stereo not drawn) [Example 071, N-[4-[4-[6-chloro-4-(trifluoromethyl)-2-pyridyl]piperazin-1-yl]sulfonylphenyl]-4-[2-(5-methyl-2,3,3a,4,6,6a-hexahydropyrrolo[2,3-c]pyrrol-1-yl)ethyl]benzamide] | 4.2 (≈ 6.2 µM) | 4.2 (≈ 6.2 µM) |  | 
11 | O=C(Nc1ccc(S(=O)(=O)N2CCN(c3cc(C(F)(F)F)cc(Cl)n3)CC2)cc1)c1ccc(CCNCCCN2CCOCC2)cc1 [Example 073, N-[4-[4-[6-chloro-4-(trifluoromethyl)-2-pyridyl]piperazin-1-yl]sulfonylphenyl]-4-[2-(3-morpholinopropylamino)ethyl]benzamide] | 1.4 (≈ 2.01 µM) | 2.9 (≈ 4.17 µM) |  | 
12 | NC1CC12CCN(CCc1ccc(C(=O)Nc3ccc(S(=O)(=O)N4CCN(c5cc(C(F)(F)F)cc(Cl)n5)CC4)cc3)cc1)C2 (stereo not drawn) [Example 074, 4-[2-(2-Amino-5-azaspiro[2.4]heptan-5-yl)ethyl]-N-[4-[4-[6-chloro-4-(trifluoromethyl)-2-pyridyl]piperazin-1-yl]sulfonylphenyl]benzamide] | 2.8 (≈ 4.22 µM) | 2.8 (≈ 4.22 µM) |  | 
13 | O=C(Nc1ccc(S(=O)(=O)N2CCN(c3cc(C(F)(F)F)cc(Cl)n3)CC2)cc1)c1ccc(CCN2C3CNCC2C3)cc1 [Example 075, N-[4-[4-[6-chloro-4-(trifluoromethyl)-2-pyridyl]piperazin-1-yl]sulfonylphenyl]-4-[2-(3,6-diazabicyclo[3.1.1]heptan-6-yl)ethyl]benzamide] |  |  | 2.7 (≈ 4.16 µM) | 5.5 (≈ 8.47 µM)
14 | O=C(Nc1ccc(S(=O)(=O)N2CCN(c3cc(C(F)(F)F)cc(Cl)n3)CC2)cc1)c1cccc(CNCC2CCNCC2)c1 [Example 076, N-[4-[4-[6-chloro-4-(trifluoromethyl)-2-pyridyl]piperazin-1-yl]sulfonylphenyl]-3-[(4-piperidylmethylamino)methyl]benzamide] | 0.69 (≈ 1.06 µM) | 2.7 (≈ 4.15 µM) |  | 
15 | NC1CC(CNCc2cccc(C(=O)Nc3ccc(S(=O)(=O)N4CCN(c5cc(C(F)(F)F)cc(Cl)n5)CC4)cc3)c2)C1 (stereo not drawn) [Example 077, 3-[[(3-Aminocyclobutyl)methylamino]methyl]-N-[4-[4-[6-chloro-4-(trifluoromethyl)-2-pyridyl]piperazin-1-yl]sulfonylphenyl]benzamide] | 0.68 (≈ 1.07 µM) | 2.7 (≈ 4.24 µM) |  | 
16 | NC1(C2CCN(Cc3cccc(C(=O)Nc4ccc(S(=O)(=O)N5CCN(c6cc(C(F)(F)F)cc(Cl)n6)CC5)cc4)c3)C2)CC1 (stereo not drawn) [Example 079, 3-[[3-(1-Aminocyclopropyl)pyrrolidin-1-yl]methyl]-N-[4-[4-[6-chloro-4-(trifluoromethyl)-2-pyridyl]piperazin-1-yl]sulfonylphenyl]benzamide] | 1.1 (≈ 1.66 µM) | 2.2 (≈ 3.32 µM) |  | 
17 | O=C(Nc1ccc(S(=O)(=O)N2CCN(c3cc(C(F)(F)F)cc(Cl)n3)CC2)cc1)c1cccc(CNCCCN(CCO)CCO)c1 [Example 080, 3-[[3-[Bis(2-hydroxyethyl)amino]propylamino]methyl]-N-[4-[4-[6-chloro-4-(trifluoromethyl)-2-pyridyl]piperazin-1-yl]sulfonylphenyl]benzamide] | 1.4 (≈ 2 µM) | 2.9 (≈ 4.15 µM) |  | 
18 | COc1ccc(CNCCCC2CCNCC2)cc1C(=O)Nc1ccc(S(=O)(=O)N2CCN(c3cc(C(F)(F)F)cc(Cl)n3)CC2)cc1 [Example 081, N-[4-[4-[6-chloro-4-(trifluoromethyl)-2-pyridyl]piperazin-1-yl]sulfonylphenyl]-2-methoxy-5-[[3-(4-piperidyl)propylamino]methyl]benzamide] | 1.5 (≈ 2.11 µM) | 2.9 (≈ 4.09 µM) |  | 
